Measured values reported in patent US10245275B2 (ViiV HEALTHCARE UK (NO.4) LIMITED, priority 2014, dated 2019).
Read-outs that look alike come from different tables or passages of the source.

Columns and labels:
[1] = tested on: WT (wild-type HIV virus; recombinant NL4-3 virus); assay: microbe, parasite or virus in culture; assay type: cell-based, HIV-1
How it was run: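 MT-2 cells infected 4-5 days with NL4-3 carrying Renilla luciferase in place of part of nef (Gag P373S), virus made by 293T transfection, with serial inhibitor dilutions. Antiviral activity read as luciferase activity by a modified dual-luciferase read-out.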

[2] = tested on: HIV-1 NL4-3 gag A364V virus; assay: microbe, parasite or virus in culture; assay type: cell-based
How it was run: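 Recombinant NL4-3 reporter virus with Renilla luciferase replacing part of nef, made by transfection of 293T cells. MT-2 cells infected for 4-5 days with serial inhibitor dilutions; antiviral activity quantified by luciferase activity.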

[3] = Human immunodeficiency virus 1, NL43, MT2, read-out: WT (EC50, uM), Table 1 regular screen, class symbol
[4] = Human immunodeficiency virus 1, NL43, MT2, read-out: A364V (EC50, uM), Table 1 regular screen, class symbol
[5] = Human immunodeficiency virus 1, NL43, MT2, read-out: WT (EC50, uM), Table 1 regular screen, MT-2 cells, luciferase readout
[6] = Human immunodeficiency virus 1, NL43, MT2, read-out: A364V (EC50, uM), Table 1 regular screen, MT-2 cells, luciferase readout

SMILES	EC50 [1, 3] [µM]	EC50 [2, 4] [µM]	EC50 [1, 5] [µM]	EC50 [2, 6] [µM]
C=C(C)[C@@H]1CC[C@]2(NCCCC(C)(C)O)CC[C@]3(C)[C@H](CC[C@@H]4[C@@]5(C)CC=C(C6=CC[C@](CF)(C(=O)O)CC6)C(C)(C)[C@@H]5CC[C@]43C)[C@@H]12 [Example 2-3, (S)-1-(fluoromethyl)-4-((1R,3aS,5aR,5bR,7aR,11aS,11bR,13aR,13bR)-3a-((4-hydroxy-4-methylpentyl)amino)-5a,5b,8,8,11a-pentamethyl-1-(prop-1-en-2-yl)-2,3,3a,4,5,5a,5b,6,7,7a,8,11,11a,11b,12,13,13a,13b-octadecahydro-1H-cyclopenta[a]chrysen-9-yl)cyclohex-3-enecarboxylic acid]	< 0.05	> 0.05		
C=C(C)[C@@H]1CC[C@]2(NCC(O)CN3CCS(=O)(=O)CC3)CC[C@]3(C)[C@H](CC[C@@H]4[C@@]5(C)CC=C(C6=CC[C@](CF)(C(=O)O)CC6)C(C)(C)[C@@H]5CC[C@]43C)[C@@H]12 (stereo partly drawn) [Example 2-8, (1S)-4-((1R,3aS,5aR,5bR,7aR,11aS,11bR,13aR,13bR)-3a-((3-(1,1-dioxidothiomorpholino)-2-hydroxypropyl)amino)-5a,5b, 8,8,11a-pentamethyl-1-(prop-1-en-2-yl)-2,3,3a,4,5,5a,5b,6,7,7a,8,11,11a,11b,12,13,13a,13b-octadecahydro-1H-cyclopenta[a]chrysen-9-yl)-1-(fluoromethyl)cyclohex-3-enecarboxylic acid]			0.00233	1.91
C=C(C)[C@@H]1CC[C@]2(NCCC3(O)CCC(OS(C)(=O)=O)CC3)CC[C@]3(C)[C@H](CC[C@@H]4[C@@]5(C)CC=C(C6=CC[C@](CF)(C(=O)O)CC6)C(C)(C)[C@@H]5CC[C@]43C)[C@@H]12 (stereo partly drawn) [Example 2-22, (S)-1-(fluoromethyl)-4-((1R,3aS,5aR,5bR,7aR,11aS,11bR,13aR,13bR)-3a-((2-(1-hydroxy-4-((methylsulfonyl)oxy)cyclohexyl)ethyl)amino)-5a,5b,8,8,11a-pentamethyl-1-(prop-1-en-2-yl)-2,3,3a,4,5,5a,5b,6,7,7a,8,11,11a,11b,12,13,13a,13b-octadecahydro-1H-cyclopenta[a]chrysen-9-yl)cyclohex-3-enecarboxylic acid]			0.00315	0.107
C=C(C)[C@@H]1CC[C@]2(NCCN3CCC(C)(O)CC3)CC[C@]3(C)[C@H](CC[C@@H]4[C@@]5(C)CC=C(C6=CC[C@](CF)(C(=O)O)CC6)C(C)(C)[C@@H]5CC[C@]43C)[C@@H]12 [Example 2-23, (S)-1-(fluoromethyl)-4-((1R,3aS,5aR,5bR,7aR,11aS,11bR,13aR,13bR)-3a-((2-(4-hydroxy-4-methylpiperidin-1-yl)ethyl)amino)-5a,5b,8,8,11a-pentamethyl-1-(prop-1-en-2-yl)-2,3,3a,4,5,5a,5b,6,7,7a,8,11,11a,11b,12,13,13a,13b-octadecahydro-1H-cyclopenta[a]chrysen-9-yl)cyclohex-3-enecarboxylic acid]			0.00121	0.0597
C=C(C)[C@@H]1CC[C@]2(NCCN3C[C@@H]4CC3CS4(=O)=O)CC[C@]3(C)[C@H](CC[C@@H]4[C@@]5(C)CC=C(C6=CC[C@](CF)(C(=O)O)CC6)C(C)(C)[C@@H]5CC[C@]43C)[C@@H]12 (stereo in doubt) [Example 4, (S)-4-((1R,3aS,5aR,5bR,7aR,11aS,11bR,13aR,13bR)-3a-((2-((1S,4S)-2,2-dioxido-2-thia-5-azabicyclo[2.2.1]heptan-5-yl)ethyl)amino)-5a,5b, 8,8,11a-pentamethyl-1-(prop-1-en-2-yl)-2,3,3a,4,5,5a,5b,6,7,7a,8,11,11a,11b,12,13,13a,13b-octadecahydro-1H-cyclopenta[a]chrysen-9-yl)-1-(fluoromethyl)cyclohex-3-enecarboxylic acid]			0.00141	0.0392
C=C(C)[C@@H]1CC[C@]2(NCCN3CCS(=O)(=O)CC(C)C3)CC[C@]3(C)[C@H](CC[C@@H]4[C@@]5(C)CC=C(C6=CC[C@@](CF)(C(=O)O)CC6)C(C)(C)[C@@H]5CC[C@]43C)[C@@H]12 (stereo partly drawn) [Example 26, (1R)-1-(fluoromethyl)-4-((1R,3aS,5aR,5bR,7aR,11aS,11bR,13aR,13bR)-5a,5b,8,8,11a-pentamethyl-3a-((2-(6-methyl-1,1-dioxido-1,4-thiazepan-4-yl)ethyl)amino)-1-(prop-1-en-2-yl)-2,3,3a,4,5,5a,5b,6,7,7a,8,11,11a,11b,12,13,13a,13b-octadecahydro-1H-cyclopenta[a]chrysen-9-yl)cyclohex-3-enecarboxylic acid]	< 0.05	> 0.05		
C=C(C)[C@@H]1CC[C@]2(NCC(C)(C)O)CC[C@]3(C)[C@H](CC[C@@H]4[C@@]5(C)CC=C(C6=CC[C@](CF)(C(=O)O)CC6)C(C)(C)[C@@H]5CC[C@]43C)[C@@H]12 [Example 2-2, (S)-1-(fluoromethyl)-4-((1R,3aS,5aR,5bR,7aR,11aS,11bR,13aR,13bR)-3a-((2-hydroxy-2-methylpropyl)amino)-5a,5b,8,8,11a-pentamethyl-1-(prop-1-en-2-yl)-2,3,3a,4,5,5a,5b,6,7,7a,8,11,11a,11b,12,13,13a,13b-octadecahydro-1H-cyclopenta[a]chrysen-9-yl)cyclohex-3-enecarboxylic acid]	< 0.05	> 0.05		
C=C(C)[C@@H]1CC[C@]2(NCCN3CCNC3=O)CC[C@]3(C)[C@H](CC[C@@H]4[C@@]5(C)CC=C(C6=CC[C@](CF)(C(=O)O)CC6)C(C)(C)[C@@H]5CC[C@]43C)[C@@H]12 [Example 2-25, (S)-1-(fluoromethyl)-4-((1R,3aS,5aR,5bR,7aR,11aS,11bR,13aR,13bR)-5a,5b, 8,8,11a-pentamethyl-3a-((2-(2-oxoimidazolidin-1-yl)ethyl)amino)-1-(prop-1-en-2-yl)-2,3,3a,4,5,5a,5b,6,7,7a,8,11,11a,11b,12,13,13a,13b-octadecahydro-1H-cyclopenta[a]chrysen-9-yl)cyclohex-3-enecarboxylic acid]	< 0.05	> 0.05		
C=C(C)[C@@H]1CC[C@]2(NCCN3CCC(C(=O)O)(C(=O)OCC)CC3)CC[C@]3(C)[C@H](CC[C@@H]4[C@@]5(C)CC=C(C6=CC[C@@](CF)(C(=O)O)CC6)C(C)(C)[C@@H]5CC[C@]43C)[C@@H]12 [Example 17]			0.0194	3
C=C(C)[C@@H]1CC[C@]2(NCCC3(O)CCOCC3)CC[C@]3(C)[C@H](CC[C@@H]4[C@@]5(C)CC=C(C6=CC[C@](CF)(C(=O)O)CC6)C(C)(C)[C@@H]5CC[C@]43C)[C@@H]12 [Example 2-12, (S)-1-(fluoromethyl)-4-((1R,3aS,5aR,5bR,7aR,11aS,11bR,13aR,13bR)-3a-((2-(4-hydroxytetrahydro-2H-pyran-4-yl)ethyl)amino)-5a,5b, 8,8,11a-pentamethyl-1-(prop-1-en-2-yl)-2,3,3a,4,5,5a,5b,6,7,7a,8,11,11a,11b,12,13,13a,13b-octadecahydro-1H-cyclopenta[a]chrysen-9-yl)cyclohex-3-enecarboxylic acid]			0.00201	0.348
C=C(C)[C@@H]1CC[C@]2(NCCC(O)(CC)CC)CC[C@]3(C)[C@H](CC[C@@H]4[C@@]5(C)CC=C(C6=CC[C@](CF)(C(=O)O)CC6)C(C)(C)[C@@H]5CC[C@]43C)[C@@H]12 [Example 2-4, (S)-4-((1R,3aS,5aR,5bR,7aR,11aS,11bR,13aR,13bR)-3a-((3-ethyl-3-hydroxypentyl)amino)-5a,5b,8,8,11a-pentamethyl-1-(prop-1-en-2-yl)-2,3,3a,4,5,5a,5b,6,7,7a,8,11,11a,11b,12,13,13a,13b-octadecahydro-1H-cyclopenta[a]chrysen-9-yl)-1-(fluoromethyl)cyclohex-3-enecarboxylic acid]	< 0.05	> 0.05		
C=C(C)[C@@H]1CC[C@]2(NCCN3CCSCC3C(=O)O)CC[C@]3(C)[C@H](CC[C@@H]4[C@@]5(C)CC=C(C6=CC[C@@](CF)(C(=O)O)CC6)C(C)(C)[C@@H]5CC[C@]43C)[C@@H]12 (stereo partly drawn) [Example 18, 4-(2-(((1R,3aS,5aR,5bR,7aR,11aS,11bR,13aR,13bR)-9-((R)-4-carboxy-4-(fluoromethyl)cyclohex-1-en-1-yl)-5a,5b,8,8,11a-pentamethyl-1-(prop-1-en-2-yl)-2,3,3a,4,5,5a,5b,6,7,7a,8,11,11a,11b,12,13,13a,13b-octadecahydro-1H-cyclopenta[a]chrysen-3a-yl)amino)ethyl)thiomorpholine-3-carboxylic acid]			0.0243	3
CC(C)[C@@H]1CC[C@]2(NCCN3CCS(=O)(=O)CC3)CC[C@]3(C)[C@H](CC[C@@H]4[C@@]5(C)CC=C(C6CCC(CF)(C(=O)O)CC6)C(C)(C)[C@@H]5CC[C@]43C)[C@@H]12 (stereo partly drawn) [Example 23, 4-((1S,3aS,5aR,5bR,7aR,11aS,11bR,13aR,13bR)-3a-((2-(1,1-dioxidothiomorpholino)ethyl)amino)-1-isopropyl-5a,5b, 8,8,11a-pentamethyl-2,3,3a,4,5,5a,5b,6,7,7a,8,11,11a,11b,12,13,13a,13b-octadecahydro-1H-cyclopenta[a]chrysen-9-yl)-1-(fluoromethyl)cyclohexanecarboxylic acid]	< 0.05	> 0.05		
